# Earlier results as cited in patent US20190275270A1, “SYSTEM AND METHOD FOR ARRESTING DEBILITATING MIGRAINE EVENTS” (priority 2018, published 2019).
# Legend:
# CB1 [1] = target: T1, CB1 (Homo sapiens, UniProt P21554)
# CB2 [2] = target: T2, CB2 (Homo sapiens, UniProt P34972)
# CB1 [3] = target: T1, CB1; remark: listed apart in the source
# CB2 [4] = target: T2, CB2; remark: listed apart in the source
# [5] = test system: nitric oxide (NO) production; conditions: read-out: inhibits NO production, IC50
# migraine incidences = conditions: used in a preventative context
# T1 sequence (P21554 whole entry, species assumed): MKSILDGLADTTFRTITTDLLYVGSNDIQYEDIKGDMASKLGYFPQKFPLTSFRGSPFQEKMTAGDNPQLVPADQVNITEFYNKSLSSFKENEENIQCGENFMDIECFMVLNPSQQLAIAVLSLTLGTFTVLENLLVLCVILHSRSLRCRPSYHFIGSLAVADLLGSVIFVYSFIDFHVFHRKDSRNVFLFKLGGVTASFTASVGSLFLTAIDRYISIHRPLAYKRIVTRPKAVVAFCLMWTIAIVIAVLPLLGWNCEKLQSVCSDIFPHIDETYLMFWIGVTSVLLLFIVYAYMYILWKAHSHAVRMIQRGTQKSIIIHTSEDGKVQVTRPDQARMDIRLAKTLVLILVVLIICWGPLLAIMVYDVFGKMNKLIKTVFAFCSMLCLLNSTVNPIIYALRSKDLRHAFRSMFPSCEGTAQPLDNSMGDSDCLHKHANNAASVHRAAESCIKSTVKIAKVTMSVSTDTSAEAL
# T2 sequence (P34972 whole entry, species assumed): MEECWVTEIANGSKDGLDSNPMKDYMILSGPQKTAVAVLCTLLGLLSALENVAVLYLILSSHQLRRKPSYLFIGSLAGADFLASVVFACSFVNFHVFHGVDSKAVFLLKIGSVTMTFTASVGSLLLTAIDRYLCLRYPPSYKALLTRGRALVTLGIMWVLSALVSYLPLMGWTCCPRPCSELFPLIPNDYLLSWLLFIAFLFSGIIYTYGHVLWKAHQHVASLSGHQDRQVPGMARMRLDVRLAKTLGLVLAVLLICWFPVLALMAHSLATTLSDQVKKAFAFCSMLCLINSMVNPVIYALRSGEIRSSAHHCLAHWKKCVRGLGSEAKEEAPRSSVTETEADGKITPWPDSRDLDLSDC
Compound,activity at CB2 (CB2 [2]),binding to CB1 (CB1 [3]),binding to CB2 (CB2 [4]),also measured
C=CCc1ccc(O)c(-c2ccc(O)c(CC=C)c2)c1 [honokiol],antagonistic properties,–,–,activity at CB1 (CB1 [1]): full agonistic activity
caryophyllene,–,binds,binds,–
CCCCCCC[C@@H](C/C=C/CCC(=O)N(C)C/C(=C/Cl)C/C(=C\C(=O)N1CC(O)CC1=O)OC)OC (stereo partly drawn) [Malyngamide B],–,moderate potencies,moderate potencies,–
C=CCc1ccc(O)c(-c2cc(CC=C)ccc2O)c1 [Magnolol],partial agonist,–,–,IC50 [5]: ~6.2 µM
"C=C(C)[C@@H]1CCC(C)=C[C@H]1c1c(O)cc(CCCCC)cc1O [CBD, cannabidiol]",–,–,–,cut in migraine incidences (migraine incidences): more than 50%
